In patent US20230374035A1, “RAS INHIBITORS” (Revolution Medicines, Inc., priority 2019, published 2023):
pIC50: −log10 of the molar value. Like-named read-outs stand apart in the source and are kept apart here.

What was measured:
[1] = tested on: NCI-H358 (K-Ras G12C); test: CellTiter-Glo Cell Viability Assay; format: cell-based; details: Homo sapiens, NCI-H358, 120 h; H358, 5-day treatment
Procedure: Determination of Cell Viability in RAS Mutant Cancer Cell Lines
Protocol: CellTiter-Glo® Cell Viability Assay
Note—The following protocol describes a procedure for monitoring cell viability of K-Ras mutant cancer cell lines in response to a compound of the invention. Other RAS isoforms may be employed, though the number of cells to be seeded will vary based on cell line used.
Test compounds (132.5 nl) were directly dispensed into the assay plates containing cells. […] On day 5, assay plates and their contents were equilibrated to room temperature for approximately 30 minutes. […] Luminescence was measured using the PerkinElmer Enspire. Data were normalized by the following: (Sample signal/Avg. DMSO)*100. The data were fit using a four-parameter logistic fit.

[2] = molecular target: NRAS Q61K (Homo sapiens, UniProt P01111+P62937, Q61K); test: Disruption of BRAF RBD interaction with Ras (FRET / MOA assay); format: biochemical; details: read-out: NRAS Q61K FRET data IC50
Procedure: (§1) Compound is present in plate wells as a 10-point 3-fold dilution series starting at a final concentration of 30 μM. […] Compounds that facilitate disruption of a Ras:RAF complex are identified as those eliciting a decrease in the TR-FRET ratio relative to DMSO control wells.
(§2) Note—The following protocol describes a procedure for monitoring disruption of K-Ras G12C (GMP-PNP) binding to BRAF^RBD by a compound of the invention. This protocol may also be executed substituting other Ras proteins or nucleotides.
(§3) The purpose of this biochemical assay was to measure the ability of test compounds to facilitate ternary complex formation between a nucleotide-loaded K-Ras isoform and Cyclophilin A; the resulting ternary complex disrupts binding to a BRAF^RBD construct, inhibiting K-Ras signaling through a RAF effector. Data is reported as IC50 values.
(§4) Compound was present in plate wells as a 10-point 3-fold dilution series starting at a final concentration of 30 μM. […] Compounds that facilitate disruption of a K-Ras:RAF complex were identified as those eliciting a decrease in the TR-FRET ratio relative to DMSO control wells.

[3] = molecular target: NRAS Q61R (Homo sapiens, UniProt P01111+P62937, Q61R); test: as above; format: biochemical; details: read-out: NRAS Q61R FRET data IC50
Procedure: as §1, §2, §3, §4

[4] = molecular target: KRAS Q61H (Homo sapiens, UniProt P01116+P62937, Q61H); test: Disruption of BRAF RBD interaction with K-Ras (FRET / MOA assay); format: biochemical; details: read-out: KRAS Q61H FRET data IC50
Procedure: as §1, §2, §3, §4

[5] = molecular target: KRAS G12C (Homo sapiens, UniProt P01116+P62937, G12C); test: as above; format: biochemical
Procedure: as §1, §2, §3, §4

[6] = read-out: KRAS G12C FRET data IC50

NRAS Q61R, sequence (P01111 whole entry Q61R): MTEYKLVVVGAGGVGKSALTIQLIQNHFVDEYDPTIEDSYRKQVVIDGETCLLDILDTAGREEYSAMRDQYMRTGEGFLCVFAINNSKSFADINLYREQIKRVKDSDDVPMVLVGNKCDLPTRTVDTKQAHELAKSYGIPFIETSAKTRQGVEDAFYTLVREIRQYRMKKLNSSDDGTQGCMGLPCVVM
NRAS Q61R, sequence (P62937 whole entry): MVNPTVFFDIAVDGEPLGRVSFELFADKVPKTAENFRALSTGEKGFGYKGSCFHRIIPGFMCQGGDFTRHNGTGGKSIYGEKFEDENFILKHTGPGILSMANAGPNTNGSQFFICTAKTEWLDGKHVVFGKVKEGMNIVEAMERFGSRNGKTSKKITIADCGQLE
KRAS G12C, sequence (P01116 1-188 isoform P01116-2 G12C): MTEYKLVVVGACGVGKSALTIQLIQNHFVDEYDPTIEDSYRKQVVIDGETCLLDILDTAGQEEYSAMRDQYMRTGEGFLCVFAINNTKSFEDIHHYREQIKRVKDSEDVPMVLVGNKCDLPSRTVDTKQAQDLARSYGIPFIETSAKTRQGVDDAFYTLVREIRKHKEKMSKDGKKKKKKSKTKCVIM
KRAS G12C, sequence (P62937 whole entry): as the sequence (P62937 whole entry) above
NRAS Q61K, sequence (P01111 whole entry Q61K): as the sequence (P01111 whole entry Q61R) above, with R61K counted along it
NRAS Q61K, sequence (P62937 whole entry): as the sequence (P62937 whole entry) above
KRAS Q61H, sequence (P01116 1-188 isoform P01116-2 Q61H): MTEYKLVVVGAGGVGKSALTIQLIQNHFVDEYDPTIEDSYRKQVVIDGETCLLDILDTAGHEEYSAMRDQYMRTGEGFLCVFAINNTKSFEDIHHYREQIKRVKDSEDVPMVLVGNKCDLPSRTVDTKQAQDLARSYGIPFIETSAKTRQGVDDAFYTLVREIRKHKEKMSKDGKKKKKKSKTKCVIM
KRAS Q61H, sequence (P62937 whole entry): as the sequence (P62937 whole entry) above

pIC50 [2] | pIC50 [3] | SMILES | further results
7.00 to 8.00 | 7.00 to 8.00 | CCn1c(-c2cccnc2[C@H](C)OC)c2c3cc(ccc31)-c1csc(n1)C[C@H](NC(=O)[C@H](C(C)C)N(C)C(=O)N1CCN(C(C)=O)CC1)C(=O)N1CCC[C@H](N1)C(=O)OCC(C)(C)C2 (atropisomer, axis not shown) [Compound A291] | pIC50 [1]: > 8.00
7.00 to 8.00 | 7.00 to 8.00 | CCn1c(-c2cccnc2[C@H](C)OC)c2c3cc(ccc31)-c1csc(n1)C[C@H](NC(=O)[C@H](C(C)C)N(C)C(=O)N1CC[C@@H]1C)C(=O)N1CCC[C@H](N1)C(=O)OCC(C)(C)C2 (atropisomer, axis not shown) [Compound A304] | pIC50 [1]: > 8.00
7.00 to 8.00 | 7.00 to 8.00 | CCn1c(-c2cccnc2[C@H](C)OC)c2c3cc(ccc31)-c1csc(n1)C[C@H](NC(=O)[C@H](C(C)C)N(C)C(=O)N1CCC1)C(=O)N1CCC[C@H](N1)C(=O)OCC(C)(C)C2 (atropisomer, axis not shown) [Compound A399] | pIC50 [1]: > 8.00
7.00 to 8.00 | 7.00 to 8.00 | CCn1c(-c2cc(N3CCN(C)CC3)cnc2[C@H](C)OC)c2c3cc(ccc31)-c1csc(n1)C[C@H](NC(=O)[C@H](C(C)C)N(C)C(=O)N1CC(OC)C1)C(=O)N1CCC[C@H](N1)C(=O)OCC(C)(C)C2 (atropisomer, axis not shown) [Compound A466] | pIC50 [1]: > 8.00
7.00 to 8.00 | 7.00 to 8.00 | CCn1c(-c2cccnc2[C@H](C)OC)c2c3cc(ccc31)-c1csc(n1)C[C@H](NC(=O)[C@H](C(C)C)N(C)C(=O)N1CCOC3(COC3)C1)C(=O)N1CCC[C@H](N1)C(=O)OCC(C)(C)C2 (atropisomer, axis not shown) [Compound A475] | 
7.00 to 8.00 | 7.00 to 8.00 | CCn1c(-c2cccnc2[C@H](C)OC)c2c3cc(ccc31)-c1csc(n1)C[C@H](NC(=O)[C@H](C(C)C)N(C)C(=O)N1CC(Cc3cnn(C)c3)C1)C(=O)N1CCC[C@H](N1)C(=O)OCC(C)(C)C2 (atropisomer, axis not shown) [Compound A500] | pIC50 [1]: > 8.00
 |  | CCn1c(-c2cccnc2[C@H](C)OC)c2c3cc(ccc31)-c1csc(n1)C[C@H](NC(=O)[C@H](C(C)C)N(C)C(=O)N1C[C@@H]3CCN(C)C[C@@H]31)C(=O)N1CCC[C@H](N1)C(=O)OCC(C)(C)C2 (atropisomer, axis not shown) [Compound A516] | pIC50 [4]: 5.00 to 6.00
 |  | CCn1c(-c2cccnc2[C@H](C)OC)c2c3cc(ccc31)-c1csc(n1)C[C@H](NC(=O)[C@H](C(C)C)N(C)C(=O)N1C[C@H]3CCN(C)C[C@H]31)C(=O)N1CCC[C@H](N1)C(=O)OCC(C)(C)C2 (atropisomer, axis not shown) [Compound A517] | pIC50 [4]: 5.00 to 6.00
7.00 to 8.00 | 7.00 to 8.00 | CCn1c(-c2cccnc2[C@H](C)OC)c2c3cc(ccc31)-c1csc(n1)C[C@H](NC(=O)[C@H](C(C)C)N(C)C(=O)N1CCN3C(=O)CN(C)C[C@@H]3C1)C(=O)N1CCC[C@H](N1)C(=O)OCC(C)(C)C2 (atropisomer, axis not shown) [Compound A536] | pIC50 [1]: > 8.00
7.00 to 8.00 | 7.00 to 8.00 | CCn1c(-c2cccnc2[C@H](C)OC)c2c3cc(ccc31)-c1csc(n1)C[C@H](NC(=O)[C@H](C(C)C)N(C)C(=O)N1CCC13COC3)C(=O)N1CCC[C@H](N1)C(=O)OCC(C)(C)C2 (atropisomer, axis not shown) [Compound A560] | 
7.00 to 8.00 | 7.00 to 8.00 | CCn1c(-c2cccnc2[C@H](C)OC)c2c3cc(ccc31)-c1csc(n1)C[C@H](NC(=O)[C@H](C(C)C)N(C)C(=O)N1CCC3(COC3)C1)C(=O)N1CCC[C@H](N1)C(=O)OCC(C)(C)C2 (atropisomer, axis not shown) [Compound A561] | pIC50 [1]: > 8.00
7.00 to 8.00 | 7.00 to 8.00 | CCn1c(-c2cccnc2[C@H](C)OC)c2c3cc(ccc31)-c1cc(O)cc(c1)C[C@H](NC(=O)[C@H](C(C)C)N(C)C(=O)[C@@H]1OCC[C@H]1c1ccccc1)C(=O)N1CCC[C@H](N1)C(=O)OCC(C)(C)C2 (atropisomer, axis not shown) [Compound A584] | 
 |  | CCn1c(-c2cccnc2[C@H](C)OC)c2c3cc(ccc31)-c1cc(cc3nc[nH]c13)C[C@H](NC(=O)[C@H](C(C)C)N(C)C(C)=O)C(=O)N1CCC[C@H](N1)C(=O)OCC(C)(C)C2 (racemic) [Compound A153] | pIC50 [5, 6]: < 5.00
 |  | CCn1c(-c2cccnc2[C@H](C)OC)c2c3cc(ccc31)-c1cc(O)cc(c1)C[C@H](NS(=O)(=O)N1CCOCC1)C(=O)N1CCC[C@H](N1)C(=O)OCC(C)(C)C2 (racemic) [Compound A194] | pIC50 [5]: < 5.00
 |  | CCn1c(-c2cccnc2[C@H](C)OC)c2c3cc(ccc31)-c1cc(O)cc(c1)C[C@H](NS(=O)(=O)c1ccc(O)cc1)C(=O)N1CCC[C@H](N1)C(=O)OCC(C)(C)C2 (racemic) [Compound A195] | pIC50 [5, 6]: < 5.00
 |  | CCn1c(-c2cccnc2[C@H](C)OC)c2c3cc(ccc31)-c1cc(O)cc(c1)C[C@H](NS(=O)(=O)C1CC1)C(=O)N1CCC[C@H](N1)C(=O)OCC(C)(C)C2 (racemic) [Compound A196] | pIC50 [5, 6]: < 5.00
 |  | CCn1c(-c2cccnc2[C@H](C)OC)c2c3cc(ccc31)-c1cc(O)cc(c1)C[C@H](NS(=O)(=O)c1cn(C)c(C)n1)C(=O)N1CCC[C@H](N1)C(=O)OCC(C)(C)C2 (racemic) [Compound A197] | pIC50 [5, 6]: < 5.00
 |  | CCn1c(-c2cccnc2[C@H](C)OC)c2c3cc(ccc31)-c1cc(O)cc(c1)C[C@H](NS(=O)(=O)c1ccc(OC)cc1OC)C(=O)N1CCC[C@H](N1)C(=O)OCC(C)(C)C2 (racemic) [Compound A198] | pIC50 [5]: < 5.00
 |  | CCn1c(-c2cccnc2[C@H](C)OC)c2c3cc(ccc31)-c1cc(O)cc(c1)C[C@H](NS(=O)(=O)CC1CC1)C(=O)N1CCC[C@H](N1)C(=O)OCC(C)(C)C2 (racemic) [Compound A200] | pIC50 [5, 6]: < 5.00
 |  | CCn1c(-c2cccnc2[C@H](C)OC)c2c3cc(ccc31)-c1csc(n1)C[C@H](NC(=O)[C@H](C(C)C)N1CCC3(CN(C(=O)OC)C3)C1=O)C(=O)N1CCC[C@H](N1)C(=O)OCC(C)(C)C2 (racemic) [Compound A235] | pIC50 [5]: < 5.00
 |  | CCn1c(-c2cccnc2[C@H](C)OC)c2c3cc(ccc31)-c1csc(n1)C[C@H](NC(=O)[C@H](C(C)C)N(C)C(=O)[C@H]1CCN(S(C)(=O)=O)C1)C(=O)N1CCC[C@H](N1)C(=O)OCC(C)(C)C2 (racemic) [Compound A237] | pIC50 [4]: 5.00 to 6.00

SMILES | pIC50 [2] | pIC50 [3] | further results
CO[C@@H](C)c1ncccc1-c1c2c3cc(ccc3n1C)-c1cc(O)cc(c1)C[C@H](NC(=O)[C@H](C(C)C)N(C)C(C)=O)C(=O)N1CCC[C@H](N1)C(=O)OCC(C)(C)C2 (racemic) [Compound A104] |  | < 5.00 | pIC50 [4]: 5.00 to 6.00
CCn1c(-c2cccnc2[C@H](C)OC)c2c3cc(ccc31)-c1cc(O)cc(c1)C[C@H](NC(=O)[C@H](C(C)C)N(C)C(=O)C1(C(=O)O)CC1)C(=O)N1CCC[C@H](N1)C(=O)OCC(C)(C)C2 (racemic) [Compound A150] |  | < 5.00 | pIC50 [4]: 5.00 to 6.00
CCn1c(-c2cccnc2[C@H](C)OC)c2c3cc(ccc31)-c1csc(n1)C[C@H](NC(=O)[C@H](C(C)C)N1CCC3(CN(S(C)(=O)=O)C3)C1=O)C(=O)N1CCC[C@H](N1)C(=O)OCC(C)(C)C2 (racemic) [Compound A234] |  | < 5.00 | pIC50 [5, 6]: < 5.00; pIC50 [4]: 5.00 to 6.00
CCn1c(-c2cccnc2[C@H](C)OC)c2c3cc(ccc31)-c1csc(n1)C[C@H](NC(=O)[C@H](C(C)C)N(C)C(=O)N1CCC(C(=O)C(F)(F)F)CC1)C(=O)C1CCC[C@H](N1)C(=O)OCC(C)(C)C2 [Compound A422] | 7.00 to 8.00 | 7.00 to 8.00 | 
